The values that follow are results of earlier work, collected in US10500190B1, “Sublingual or buccal administration of melatonin and/or valerian” (priority 2019, dated 2019).

Experiment in data set [1]: not given
The source holds these as a separate data set.

Molecules are shown by their SMILES.

As for `COc1ccc2[nH]cc(CCNC(C)=O)c2c1` [melatonin, N-acetyl-5-methoxytrypta mine], the “variation of peak plasma concentrations” value (oral) was “over 20 fold”. Besides, where the note is “oral preparations”, the “time after administration for the blood plasma concentration of melatonin to reach its peak” value is given as “more than 30 minutes”. Also, the “solubility in water or other aqueous biological fluids” value in data set [1] is listed as “poorly soluble”.
